Values of other authors as cited in PMC6738313 (The Oncologist, 2019).

How the values were obtained:
[1] = tested on: patients with metastatic renal cell carcinoma
[2] = tested on: CYP3A4/5; details: clinical data
[3] = tested on: first-line poor- or intermediate-risk patients with mRCC; details: CABOSUN

CNC(=O)c1ccccc1Sc1ccc2c(/C=C/c3ccccn3)n[nH]c2c1 [Axitinib]
Progression-free survival (PFS) ([1]; axitinib single agent, first-line therapy, 95% CI 7.2–12.1): 10.1 months | Objective response rate (ORR) ([1]; single-agent axitinib, first-line mRCC, phase III trial versus sorafenib): 32% | Metabolic pathway [2]: primarily metabolized by CYP3A4/5

C[C@@H](Oc1cc(-c2cnn(C3CCNCC3)c2)cnc1N)c1c(Cl)ccc(F)c1Cl [crizotinib, Crizotinib]
CYP3A4/5 inhibition (classification) [2]: moderate time‐dependent CYP3A4/5 inhibitor

COc1cc2nccc(Oc3ccc(NC(=O)C4(C(=O)Nc5ccc(F)cc5)CC4)cc3)c2cc1OC [cabozantinib]
Estimated progression-free survival (PFS) ([3]; 95% CI 6.2–8.8): 8.2 months | Objective response rate (ORR) ([3]; first-line poor- or intermediate-risk patients with mRCC): 46%
